Non-standard residues stand in square brackets, D forms with d. Residues, ends and D or L forms follow the SMILES beside them. *: point of attachment. Shikimoyl = O=C(C1=C[C@@H](O)[C@@H](O)[C@H](O)C1)*; Tetrahydrofuroyl(2R) = O=C([C@H]1CCCO1)*; dPhe(4-Cl) = N[C@H](Cc1ccc(Cl)cc1)C(=O)O; d2Nal = N[C@H](Cc1ccc2ccccc2c1)C(=O)O; Acetyl(3-pyridyl) = O=C(Cc1cccnc1)*; Lys(iPr) = CC(C)NCCCC[C@H](N)C(=O)O; NMeY = CN[C@@H](Cc1ccc(O)cc1)C(=O)O; Thiophene2carbonyl = O=C(c1cccs1)*; dCit = NC(=O)NCCC[C@@H](N)C(=O)O; d3Pal = N[C@H](Cc1cccnc1)C(=O)O; Isonicotinoyl = O=C(c1ccncc1)*; Nicotinoyl = O=C(c1cccnc1)*; Picolinoyl = O=C(c1ccccn1)*; X2 = O=C1CC[C@@H](C(=O)*)O1; X8 = O=C1CC[C@H](C(=O)*)O1; X1 = O=C([C@@H]1CCCO1)*; X9 = O=C(c1ccc(O)nc1)*
Biological target: T1, LHRH (Rattus norvegicus, UniProt P30969)
T1 construct: endogenous in cells; host or cells: rat pituitary cells (own knowledge of the cited Haviv 1989 method)
T1 sequence (P30969 1-327): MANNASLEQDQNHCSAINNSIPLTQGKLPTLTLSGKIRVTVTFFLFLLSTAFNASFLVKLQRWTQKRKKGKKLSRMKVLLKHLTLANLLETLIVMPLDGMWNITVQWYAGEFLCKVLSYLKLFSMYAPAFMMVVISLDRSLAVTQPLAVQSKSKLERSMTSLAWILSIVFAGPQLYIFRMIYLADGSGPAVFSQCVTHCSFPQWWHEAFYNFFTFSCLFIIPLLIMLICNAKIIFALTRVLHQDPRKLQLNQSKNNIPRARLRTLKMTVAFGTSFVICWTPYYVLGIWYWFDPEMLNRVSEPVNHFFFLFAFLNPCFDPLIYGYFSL
Test: in vitro test for LHRH antagonist potency (pA2)
Format: cell-based
Details: negative logarithm of the antagonist concentration required to shift the response curve produced by the agonist leuprolide to two-fold higher concentration
Outline: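 Rat LHRH receptor in vitro functional test; pA2 = negative log of the antagonist concentration shifting the leuprolide agonist response curve to two-fold higher concentration.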

Row | Compound | Kb [pM]
1 | CC(C)C[C@H](NC(=O)[C@@H](CCCCNC(=O)c1cccnc1)NC(=O)[C@H](Cc1ccc(O)cc1)N(C)C(=O)[C@H](CO)NC(=O)[C@@H](Cc1cccnc1)NC(=O)[C@@H](Cc1ccc(Cl)cc1)NC(=O)[C@@H](Cc1ccc2ccccc2c1)NC(=O)c1cccs1)C(=O)N[C@@H](CCCCNC(C)C)C(=O)N1CCC[C@H]1C(=O)N[C@H](C)C(N)=O [Example 72c, N-Thienyl-2-carbonyl-D2Nal-D4ClPhe-D3Pal-Ser-NMeTyr-DLys(Nic)-Leu-Lys(Isp)-Pro-DAlaNH2] (Thiophene2carbonyl-[d2Nal][dPhe(4-Cl)][d3Pal]S[NMeY][dK](Nicotinoyl)L[Lys(iPr)]P[dA]-NH2) | 20
2 | CC(C)C[C@H](NC(=O)[C@@H](CCCCNC(=O)c1cccnc1)NC(=O)[C@H](Cc1ccc(O)cc1)N(C)C(=O)[C@H](CO)NC(=O)[C@@H](Cc1cccnc1)NC(=O)[C@@H](Cc1ccc(Cl)cc1)NC(=O)[C@@H](Cc1ccc2ccccc2c1)NC(=O)c1cccnc1)C(=O)N[C@@H](CCCCNC(C)C)C(=O)N1CCC[C@H]1C(=O)N[C@H](C)C(N)=O [Example 72d, N-Nicotinyl-D2Nal-D4ClPhe-D3Pal-Ser-NMeTyr-DLys(Nic)-Leu-Lys(Isp)-Pro-DAlaNH2] (Nicotinoyl-[d2Nal][dPhe(4-Cl)][d3Pal]S[NMeY][dK](Nicotinoyl)L[Lys(iPr)]P[dA]-NH2) | 8.71
3 | CC(C)C[C@H](NC(=O)[C@@H](CCCCNC(=O)c1cccnc1)NC(=O)[C@H](Cc1ccc(O)cc1)N(C)C(=O)[C@H](CO)NC(=O)[C@@H](Cc1cccnc1)NC(=O)[C@@H](Cc1ccc(Cl)cc1)NC(=O)[C@@H](Cc1ccc2ccccc2c1)NC(=O)c1ccccn1)C(=O)N[C@@H](CCCCNC(C)C)C(=O)N1CCC[C@H]1C(=O)N[C@H](C)C(N)=O [Example 72e, N-Picolinoyl-D2Nal-D4ClPhe-D3Pal-Ser-NMeTyr-DLys(Nic)-Leu-Lys(Isp)-Pro-DAlaNH2] (Picolinoyl-[d2Nal][dPhe(4-Cl)][d3Pal]S[NMeY][dK](Nicotinoyl)L[Lys(iPr)]P[dA]-NH2) | 14.1
4 | CC(C)C[C@H](NC(=O)[C@@H](CCCCNC(=O)c1cccnc1)NC(=O)[C@H](Cc1ccc(O)cc1)N(C)C(=O)[C@H](CO)NC(=O)[C@@H](Cc1cccnc1)NC(=O)[C@@H](Cc1ccc(Cl)cc1)NC(=O)[C@@H](Cc1ccc2ccccc2c1)NC(=O)c1ccc(O)nc1)C(=O)N[C@@H](CCCCNC(C)C)C(=O)N1CCC[C@H]1C(=O)N[C@H](C)C(N)=O [Example 72f, N-(6-Hydroxy)nicotinyl-D2Nal-D4ClPhe-D3Pal-Ser-NMeTyr-DLys(Nic)-Leu-Lys(Isp)-Pro-DAlaNH2] (X9-[d2Nal][dPhe(4-Cl)][d3Pal]S[NMeY][dK](Nicotinoyl)L[Lys(iPr)]P[dA]-NH2) | 10
5 | CC(C)C[C@H](NC(=O)[C@@H](CCCCNC(=O)c1cccnc1)NC(=O)[C@H](Cc1ccc(O)cc1)N(C)C(=O)[C@H](CO)NC(=O)[C@@H](Cc1cccnc1)NC(=O)[C@@H](Cc1ccc(Cl)cc1)NC(=O)[C@@H](Cc1ccc2ccccc2c1)NC(=O)c1ccncc1)C(=O)N[C@@H](CCCCNC(C)C)C(=O)N1CCC[C@H]1C(=O)N[C@H](C)C(N)=O [Example 72g, N-Isonicotinyl-D2Nal-D4ClPhe-D3Pal-Ser-NMeTyr-DLys(Nic)-Leu-Lys(Isp)-Pro-DAlaNH2] (Isonicotinoyl-[d2Nal][dPhe(4-Cl)][d3Pal]S[NMeY][dK](Nicotinoyl)L[Lys(iPr)]P[dA]-NH2) | 20
6 | CC(C)C[C@H](NC(=O)[C@@H](CCCCNC(=O)c1cccnc1)NC(=O)[C@H](Cc1ccc(O)cc1)N(C)C(=O)[C@H](CO)NC(=O)[C@@H](Cc1cccnc1)NC(=O)[C@@H](Cc1ccc(Cl)cc1)NC(=O)[C@@H](Cc1ccc2ccccc2c1)NC(=O)Cc1cccnc1)C(=O)N[C@@H](CCCCNC(C)C)C(=O)N1CCC[C@H]1C(=O)N[C@H](C)C(N)=O [Example 72h, N-(3-Pyridylacetyl)-D2Nal-D4ClPhe-D3Pal-Ser-NMeTyr-DLys(Nic)-Leu-Lys(Isp)- Pro-DAlaNH2] ({Acetyl(3-pyridyl)}-[d2Nal][dPhe(4-Cl)][d3Pal]S[NMeY][dK](Nicotinoyl)L[Lys(iPr)]P[dA]-NH2) | 6.31
7 | CC(C)C[C@H](NC(=O)[C@@H](CCCCNC(=O)c1cccnc1)NC(=O)[C@H](CCCCNC(=O)c1cccnc1)NC(=O)[C@H](CO)NC(=O)[C@@H](Cc1cccnc1)NC(=O)[C@@H](Cc1ccc(Cl)cc1)NC(=O)[C@@H](Cc1ccc2ccccc2c1)NC(=O)C1=C[C@@H](O)[C@@H](O)[C@H](O)C1)C(=O)N[C@@H](CCCCNC(C)C)C(=O)N1CCC[C@H]1C(=O)N[C@H](C)C(N)=O [Example 73, N-Shikimyl-D2Nal-D4ClPhe-D3Pal-Ser-Lys(Nic)-DLys(Nic)-Leu-Lys(Isp)-Pro-DAlaNH2] (Shikimoyl-[d2Nal][dPhe(4-Cl)][d3Pal]SK(Nicotinoyl)[dK](Nicotinoyl)L[Lys(iPr)]P[dA]-NH2) | 44.7
8 | CC(C)C[C@H](NC(=O)[C@@H](CCCCNC(=O)c1cccnc1)NC(=O)[C@H](CCCCNC(=O)c1cccnc1)NC(=O)[C@H](CO)NC(=O)[C@@H](Cc1cccnc1)NC(=O)[C@@H](Cc1ccc(Cl)cc1)NC(=O)[C@@H](Cc1ccc2ccccc2c1)NC(=O)c1cccnc1)C(=O)N[C@@H](CCCCNC(C)C)C(=O)N1CCC[C@H]1C(=O)N[C@H](C)C(N)=O [Example 74, N-Nicotinyl-D2Nal-D4ClPhe-D3Pal-Ser-Lys(Nic)-DLys(Nic)-Leu-Lys(Isp)-Pro-DAlaNH2] (Nicotinoyl-[d2Nal][dPhe(4-Cl)][d3Pal]SK(Nicotinoyl)[dK](Nicotinoyl)L[Lys(iPr)]P[dA]-NH2) | 56.2
9 | CC(C)C[C@H](NC(=O)[C@@H](CCCCNC(=O)c1cccnc1)NC(=O)[C@H](Cc1ccc(O)cc1)NC(=O)[C@H](CO)NC(=O)[C@@H](Cc1cccnc1)NC(=O)[C@@H](Cc1ccc(Cl)cc1)NC(=O)[C@@H](Cc1ccc2ccccc2c1)NC(=O)C1=C[C@@H](O)[C@@H](O)[C@H](O)C1)C(=O)N[C@@H](CCCCNC(C)C)C(=O)N1CCC[C@H]1C(=O)N[C@H](C)C(N)=O [Example 75, N-Shikimyl-D2Nal-D4ClPhe-D3Pal-Ser-Tyr-DLys(Nic)-Leu-Lys(Isp)-Pro-DAlaNH2] (Shikimoyl-[d2Nal][dPhe(4-Cl)][d3Pal]SY[dK](Nicotinoyl)L[Lys(iPr)]P[dA]-NH2) | 11.2
10 | CC(C)C[C@H](NC(=O)[C@@H](CCCNC(N)=O)NC(=O)[C@H](Cc1ccc(O)cc1)N(C)C(=O)[C@H](CO)NC(=O)[C@@H](Cc1cccnc1)NC(=O)[C@@H](Cc1ccc(Cl)cc1)NC(=O)[C@@H](Cc1ccc2ccccc2c1)NC(=O)[C@@H]1CCCO1)C(=O)N[C@@H](CCCNC(=N)N)C(=O)N1CCC[C@H]1C(=O)N[C@H](C)C(N)=O [Example 76, N-(S)-Tetrahydofur-2-oyl-D2Nal-D4ClPhe-D3Pal-Ser-NMeTyr-DCit-Leu-Arg-Pro-DAlaNH2] (X1-[d2Nal][dPhe(4-Cl)][d3Pal]S[NMeY][dCit]LRP[dA]-NH2) | 35.5
11 | CC(C)C[C@H](NC(=O)[C@@H](CCCNC(N)=O)NC(=O)[C@H](Cc1ccc(O)cc1)N(C)C(=O)[C@H](CO)NC(=O)[C@@H](Cc1cccnc1)NC(=O)[C@@H](Cc1ccc(Cl)cc1)NC(=O)[C@@H](Cc1ccc2ccccc2c1)NC(=O)[C@H]1CCCO1)C(=O)N[C@@H](CCCNC(=N)N)C(=O)N1CCC[C@H]1C(=O)N[C@H](C)C(N)=O [Example 77, N-(R)-Tetrahydofur-2-oyl-D2Nal-D4ClPhe-D3Pal-Ser-NMeTyr-DCit-Leu-Arg-Pro-DAlaNH2] ({Tetrahydrofuroyl(2R)}-[d2Nal][dPhe(4-Cl)][d3Pal]S[NMeY][dCit]LRP[dA]-NH2) | 14.1
12 | CC(C)C[C@H](NC(=O)[C@@H](CCCNC(N)=O)NC(=O)[C@H](Cc1ccc(O)cc1)N(C)C(=O)[C@H](CO)NC(=O)[C@@H](Cc1cccnc1)NC(=O)[C@@H](Cc1ccc(Cl)cc1)NC(=O)[C@@H](Cc1ccc2ccccc2c1)NC(=O)[C@H]1CCC(=O)O1)C(=O)N[C@@H](CCCNC(=N)N)C(=O)N1CCC[C@H]1C(=O)N[C@H](C)C(N)=O [Example 78a, N-(R)-5-Oxo-tetrahydrofur-2-oyl-D2Nal-D4ClPhe-D3Pal-Ser-NMeTyr-DCit-Leu-Arg-Pro-DAlaNH2] (X8-[d2Nal][dPhe(4-Cl)][d3Pal]S[NMeY][dCit]LRP[dA]-NH2) | 10.5
13 | CC(C)C[C@H](NC(=O)[C@@H](CCCNC(N)=O)NC(=O)[C@H](Cc1ccc(O)cc1)N(C)C(=O)[C@H](CO)NC(=O)[C@@H](Cc1cccnc1)NC(=O)[C@@H](Cc1ccc(Cl)cc1)NC(=O)[C@@H](Cc1ccc2ccccc2c1)NC(=O)[C@@H]1CCC(=O)O1)C(=O)N[C@@H](CCCNC(=N)N)C(=O)N1CCC[C@H]1C(=O)N[C@H](C)C(N)=O [Example 78b, N-(S)-5-Oxo-tetrahydrofur-2-oyl-D2Nal-D4ClPhe-D3Pal-Ser-NMeTyr-DCit-Leu-Arg-Pro-DAlaNH2] (X2-[d2Nal][dPhe(4-Cl)][d3Pal]S[NMeY][dCit]LRP[dA]-NH2) | 8.32
14 | CC(C)C[C@H](NC(=O)[C@@H](CCCNC(N)=O)NC(=O)[C@H](Cc1ccc(O)cc1)N(C)C(=O)[C@H](CO)NC(=O)[C@@H](Cc1cccnc1)NC(=O)[C@@H](Cc1ccc(Cl)cc1)NC(=O)[C@@H](Cc1ccc2ccccc2c1)NC(=O)C1=C[C@@H](O)[C@@H](O)[C@H](O)C1)C(=O)N[C@@H](CCCNC(=N)N)C(=O)N1CCC[C@H]1C(=O)N[C@H](C)C(N)=O [Example 78c, N-Shikimyl-D2Nal-D4ClPhe-D3Pal-Ser-NMeTyr-DCit-Leu-Arg-Pro-DAlaNH2] (Shikimoyl-[d2Nal][dPhe(4-Cl)][d3Pal]S[NMeY][dCit]LRP[dA]-NH2) | 13.2
